The values that follow are results of earlier work, collected in KR20140119363A, “보리코나졸이 함유된 안정화된 조성물” (에스케이케미칼주식회사, priority 2013, dated 2014).

For series [1] the following is noted: degradation product triazole acetophenone formed.
The test system of series [2] is deep-seated mycosis [심재성 진균증].
For series [3] the following is noted: in vivo.

For `C[C@@H](c1ncncc1F)[C@](O)(Cn1cncn1)c1ccc(F)cc1F` [보리코나졸], the “stability to moisture and heat” value in series [1] is reported as “수분 및 열에 불안정”.
As to `C[C@@H]1[C@H](O)[C@@H](C)/C=C/C=C/C=C/C=C/C=C/C=C/C=C/[C@H](O[C@@H]2O[C@H](C)[C@@H](O)[C@H](N)[C@@H]2O)C[C@@H]2O[C@](O)(C[C@@H](O)C[C@@H](O)[C@H](O)CC[C@@H](O)C[C@@H](O)CC(=O)O[C@H]1C)C[C@H](O)[C@H]2C(=O)O` [암포테리신 B], the response rate in series [2] (overall average) is given as ~34%. The nephrotoxicity result in series [3] is “심각한 문제”.
Turning to `CCC(C)n1ncn(-c2ccc(N3CCN(c4ccc(OCC5COC(Cn6cncn6)(c6ccc(Cl)cc6Cl)O5)cc4)CC3)cc2)c1=O` (stereo not shown) [이트라코나졸], the treatment success rate result in series [2] (in vivo) is “그다지 높지 않은”.
